Data as given in US20240277684A1, “BLOCKADE OF CHEMOKINE (C-C MOTIF) RECEPTOR 2 DURING FLUID RESUSCITATION” (University of South Florida, priority 2022, published 2024).

Columns and labels:
[1] = system: isolated rat mesenteric arteries; experiment: Pressure myography with isolated rat mesenteric arteries; conditions: 10 μM, 15 min pre-exposure, vs vehicle
normal rats = experiment: Effects on blood pressure in normal rats; format: in vivo, rat
Description: In vivo animal experiments. All procedures were performed in accordance with the National Institutes of Health Guidelines for Use of Laboratory Animals and were approved by the University of South Florida Institutional Animal Care and Use Committeee (IS00008139). Male Sprague-Dawley rats (300-400 g, Envigo, Indianapolis, IN, USA). were anesthetized with 1.7% isoflurane via nose-cone inhalation with the SomnoSuite anesthesia system (Kent Scientific, Torrington, CT, USA). […] The left femoral artery was isolated and cannulated with a 24-gauge peripheral intravenous catheter to allow for blood withdrawal, hemodynamic monitoring, drug administration, and fluid resuscitation. Hemodynamics were continuously monitored with the SurgivetV6400 blood pressure monitor (Med-Electronics, Beltsville, MD, USA), and blood pressures and heart rate were recorded at 1-10 min intervals. All animals were observed over a 10 min period to ensure hemodynamic stability before start of the experiments. All experiments were performed randomized in alternating order. To test the effects of INCB3284 in normal rats, animals received repetitive injections of 1 mL of Lactated Ringer's solution (LR, vehicle) in 10 min intervals (n=3) or increasing doses of the drug (0.55, 0.82, 1.4 and 2.75 μmol/kg INCB3284) in 1 mL LR in 10 min intervals (n=3).

severe hemorrhagic shock = experiment: Example 2 Series 4: lethal hemorrhage without fluid resuscitation; format: in vivo, rat; conditions: 5 μmol/kg INCB3284 or 1 μmol/kg SB328437 after 40% TBV hemorrhage
Description: The hemorrhagic shock models were performed as described previously, with slight modifications (DeSantis A J, et al., The Chemokine (C-C Motif) Receptor 2 Antagonist INCB3284 Reduces Fluid Requirements and Protects From Hemodynamic Decompensation During Resuscitation From Hemorrhagic Shock. Crit Care Explor 2022;4(5):e0701; Bach H H, et al., Chemokine (C-X-C motif) receptor 4 and atypical chemokine receptor 3 regulate vascular alpha(1)-adrenergic receptor function. Mol Med 2014; 20:435-47; Nassoiy S P, et al., Effects of the Kv7 voltage activated potassium channel inhibitor linopirdine in rat models of hemorrhagic shock. Clin Exp Pharmacol Physiol 2018. doi: 10.1111/1440-1681.12958. PubMed PMID: 29702725; Bach H H, et al., Proteasome inhibition prolongs survival during lethal hemorrhagic shock in rats. J Trauma Acute Care Surg 2013; 74(2):499-507). In brief, anesthesia induction was performed with the animal and isoflurane-soaked gauze placed in a bell jar. After anesthesia induction, the animals were transferred to the operative field and anesthesia was maintained with 2.7% isoflurane administered via nose-cone inhalation with the SomnoSuite small animal anesthesia system (Kent Scientific Corporation, Torrington, CT, USA). […] Using a direct cut-down technique, the left femoral artery was isolated and cannulated with a 24-gauge peripheral intravenous catheter to allow for blood withdrawal, hemodynamic monitoring, drug administration, and fluid resuscitation. After catheter placement, isoflurane was decreased to 1.5%. Hemodynamics were continuously monitored with the Surgivet invasive blood pressure monitor (Med-Electronics, Beltsville, MD, USA). Blood pressures were recorded at 1-5 min intervals during the hemorrhage and resuscitation periods. Four subsequent series of experiments were performed. All experiments in each series were performed in alternating order. In all experiments animals were continuously monitored and remained under general anesthesia until euthanasia or death, as defined by asystole or loss of pulse pressure.
Series 4: The purpose of these experiments was to determine whether treatment with the chemokine receptor antagonists increases shock tolerance, blood pressure and survival time without additional fluid resuscitation. As such, death is an intentional endpoint. Earlier endpoints are unable to answer these questions and alternatives are not available. Rats were hemorrhaged 40% total blood volume (TBV) within 10 min. At t=15 min, animals were injected with vehicle (1 mL NS, n=3), 5 μmol/kg INCB3284 in 1 mL NS (n=5) or […] SB 328437 in 1 mL NS (n=5). Animals were then hemorrhaged 2% TBV every 5 minutes until death.

CCR2 = CCR2 (Homo sapiens, UniProt P41597); conditions: read-out: IC50, inhibiting monocyte chemoattractant protein-1 binding to hCCR2; cited from earlier work
[2] = increasing doses 0.55, 0.82, 1.4 and 2.75 μmol/kg in 1 mL LR, 10 min intervals

Sequence of CCR2 (P41597 whole entry): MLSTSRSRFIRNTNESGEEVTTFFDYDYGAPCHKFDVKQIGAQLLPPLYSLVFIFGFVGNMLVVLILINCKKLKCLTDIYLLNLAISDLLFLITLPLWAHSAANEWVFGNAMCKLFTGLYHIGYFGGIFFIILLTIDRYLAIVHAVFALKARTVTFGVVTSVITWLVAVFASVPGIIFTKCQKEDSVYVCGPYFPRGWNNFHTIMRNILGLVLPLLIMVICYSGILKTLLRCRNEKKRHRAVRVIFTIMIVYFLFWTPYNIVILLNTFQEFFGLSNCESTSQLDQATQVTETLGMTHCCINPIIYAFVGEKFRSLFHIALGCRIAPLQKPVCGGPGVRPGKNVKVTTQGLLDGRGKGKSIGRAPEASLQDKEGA

COc1ccc([C@]2(O)CC[C@@H](N3CC[C@@H](NC(=O)CNC(=O)c4cccc(C(F)(F)F)c4)C3)CC2)cn1 [INCB3284]
artery diameter [1]: did not alter artery diameter
phenylephrine-induced vasoconstriction [1]: did not alter artery diameter or affect phenylephrine-induced vasoconstriction
MAP during the observation period (normal rats; [2]): remained constant
acute effects on blood pressure (normal rats; [2]): did not show acute effects on blood pressure
slope of the MAP linear regression line (normal rats; increasing doses 0.55-2.75 μmol/kg, not significantly different from zero (p=0.43)): −0.011 mmHg/min
MAP during subsequent 2% TBV hemorrhages in 5 min intervals (severe hemorrhagic shock; no fluid resuscitation): indistinguishable among groups
median survival time (severe hemorrhagic shock; not significantly different between groups): 80 min
IC50 (CCR2): 3.7 nM
